Assay results from US20140377216A1, “ANTICANCER FUSION PROTEIN” (ADAMED SP. Z.O.O., priority 2011, published 2014).

How the values were obtained:
Type in all cases: in vivo, Crl:SHO-PrkdcscidHrhr mice
[1] = tested on: human colon cancer HCT116; experiment: Colon cancer model, Experiment A1: HCT116 xenograft; conditions: 65 mg/kg i.v. six times every second day, 24th day
Method: (§1) Tumor size was measured using electronic calliper, tumor volume was calculated using the formula: (a^2×b)/2, where a=shorter diagonal of the tumor (mm) and b=longer diagonal of the tumor (mm). Inhibition of tumor growth was calculated using the formula:
(§2) TGI[%](Tumor growth inhibition)=(WT/WC)×100−100%
(§3) wherein WT is the average tumor volume in the treatment group, and WC is the average tumor volume in the control group.
On day 0 Crl:SHO-Prkdc^scidHr^hr mice were grafted subcutaneously (s.c.) in the right flank region with 5×10^6 of HCT116 cells suspended in 0.1 ml of the 3:1 mixture HBSS buffer:Matrigel using syringe with a 0.5×25 mm needle (Bogmark). When tumors reached the size of 71-432 mm^3 (day 13), mice were randomized to obtain the average size of tumors in the group of ˜180 mm^3 and assigned to treatment groups. The treatment groups were administered with the preparations of fusion protein of the invention of Ex. 16^b (90 mg/kg) and rhTRAIL114-281 (65 mg/kg) as a comparison. The preparations were administered intravenously (i.v.) six times every second day. The control group received formulation buffer.
When an experimental group reached the average tumor size of −1000 mm^3, mice were sacrificed by cervical dislocation.

[2] = tested on: human colon cancer Colo205; experiment: Colon cancer model, Experiment C: Colo205 xenograft; conditions: rhTRAIL 30 mg/kg i.v. 6 times every second day, 33 day
Method: as §1, §2, §3
On day 0 Crl:SHO-Prkdc^scidHr^hr mice were grafted subcutaneously (s.c.) in the right side with 5×10^6 of Colo205 cells suspended in 0.1 ml of HBSS buffer using syringe with a needle 0.5×25 mm (Bogmark). On the 13 day of the experiment mice were randomized to obtain the average size of tumors in the group of ˜115 mm^3 and assigned to treatment groups.
The treatment groups were administered with the preparations of fusion protein of the invention of Ex. 16^a (30 mg/kg), and rhTRAIL114-281 (30 mg/kg) as a comparison against formulation buffer (19 mM NaH2PO4, 81 mM Na2HPO4, 50 mM NaCl, 5 mM glutathione, 0.1 mM ZnCl2, 10% glycerol, pH 7.4) as a control. The preparations were administered intravenously (i.v) 6 times once daily every second day. On the 33 day of the experiment mice were sacrificed by disruption of spinal cord.

[3] = tested on: multidrug resistant human uterine sarcoma MES-SA/Dx5; experiment: Multidrug resistant uterine sarcoma model: MES-SA/Dx5 xenograft; conditions: 10 mg/kg i.v. 6 times every second day, 35 day
Method: as §1, §2, §3
On day 0 Crl:SHO-Prkdc^scidHr^hr mice were grafted subcutaneously (s.c.) in the right side with 7×10^6 of MES-SA/Dx5 cells suspended in 0.1 ml of the mixture HBSS:Matrigel 10:1 using syringe with a needle 0.5×25 mm (Bogmark). On the 19 day of the experiment mice were randomized to obtain the average size of tumors in the group of −180 mm^3 and assigned to treatment groups. The treatment groups were administered with the preparation of fusion protein of the invention of Ex. 11^a (30 mg/kg) and rhTRAIL114-281 (10 mg/kg) as a comparison against formulation buffer (19 mM NaH2PO4, 81 mM Na2HPO4, 50 mM NaCl, 5 mM glutathione, 0.1 mM ZnCl2, 10% glycerol, pH 7.4) as a control. Preparations were administered intravenously (i.v.) 6 times once daily every second day. On the 35 day of the experiment mice were sacrificed by disruption of spinal cord.

[4] = tested on: human pancreas cancer PANC-1; experiment: Pancreas cancer model, Experiment A: PANC-1 xenograft; conditions: 20 mg/kg i.v. 6 times every second day, 42 day
Method: as §1, §2, §3
On day 0 Crl:SHO-Prkdc^scidHr^hr mice were grafted subcutaneously (s.c.) in the right side with 5×10^6 of PANC-1 cells suspended in 0.1 ml of the mixture HBSS:Matrigel 3:1 using syringe with a needle 0.5×25 mm (Bogmark). On the 31 day of the experiment mice were randomized to obtain the average size of tumors in the group of ˜110 mm^3 and assigned to treatment groups. The treatment groups were administered with the preparations of fusion protein of the invention of Ex. 11^a (40 mg/kg), and rhTRAIL114-281 (20 mg/kg) as a comparison against formulation buffer (19 mM NaH2PO4, 81 mM Na2HPO4, 50 mM NaCl, 5 mM glutathione, 0.1 mM ZnCl2, 10% glycerol, pH 7.4) as a control. The preparations were administered intravenously (i.v) 6 times once daily every second day. On the 42 day of the experiment mice were sacrificed by disruption of the spinal cord.

[5] = tested on: human colon cancer HCT116; experiment: Colon cancer model, Experiment A: HCT116 xenograft; conditions: 20 mg/kg i.v. 6 times every second day, 32 day
Method: as §1, §2, §3
On day 0 Crl:SHO-Prkdc^scidHr^hr mice were grafted subcutaneously (s.c.) in the right side with 5×10^6 of HCT116 cells suspended in 0.1 ml of HBSS buffer using syringe with a needle 0.5×25 mm (Bogmark). On the 18 day of the experiment mice were randomized to obtain the average size of tumors in the group of −400 mm^3 and assigned to treatment groups. The treatment groups were administered with the preparations of fusion protein of the invention of Ex. 11^a (35 mg/kg), and rhTRAIL114-281 (20 mg/kg) as a comparison against formulation buffer (5 mM NaH2PO4, 95 mM Na2HPO4, 200 mM NaCl, 5 mM glutathione, 0.1 mM ZnCl2, 10% glycerol, 80 mM saccharose, pH 8.0) as a control. The preparations were administered intravenously (i.v) 6 times once daily every second day. On the 32 day of the experiment mice were sacrificed by disruption of the spinal cord.

## rhTRAIL114-281: recombinant human soluble TRAIL, amino acids 114-281 of hTRAIL, used as comparative reference
[1]
  TGI (tumor growth inhibition) relative to the control: 37.9%
[2]
  TGI (tumor growth inhibition) relative to the control: 18.8%
[3]
  TGI (tumor growth inhibition) relative to the control: 29%
[4]
  TGI (tumor growth inhibition) relative to the control: 26%
[5]
  TGI (tumor growth inhibition) relative to the control: 5.6%
